The nature of data set [1]: photochromic response rates on an optical bench (test squares). Particulars: for ΔOD @ SATURATION: UV exposure continued for 20 minutes, same test squares; for ΔOD @ SATURATION / ΔOD/MIN SENSITIVITY: 75° F. (23.9° C.); for ΔOD/MIN SENSITIVITY: measured over first five seconds of UV exposure, expressed per minute, 1.5 x 10^-3 molal in BPA 2EO DMA / poly(ethyleneglycol) 600 dimethacrylate polymer; for Bleach Rate (T1/2): time for absorbance of activated form to reach one half the highest absorbance, room temperature (75° F., 23.9° C.), after removal of activating light. It is filed as physicochemical. The procedure: Testing was done with the photochromic naphthopyrans of the Examples incorporated into polymeric samples by the following method. The quantity of naphthopyran calculated to yield a 1.5 time 10^-3 molal solution was added to a flask containing 50 grams of a monomer blend of 4 parts ethoxylated bisphenol A dimethacrylate (BPA 2EO DMA), 1 part poly(ethyleneglycol) 600 dimethacrylate, and 0.033 weight percent 2,2'-azobis (2-methyl propionitrile) (AIBN). The naphthopyran was dissolved into the monomer blend by stirring and gentle heating, if necessary. After a clear solution was obtained, it was poured into a flat sheet mold having the interior dimensions of 2.2 mm×6 inches (15.24 cm)×6 inches (15.24 cm). The mold was sealed and placed in a horizontal air flow, programmable oven set to increase the temperature from 40° C. to 95° C. over a 5 hour interval, hold the temperature at 95° C. for 3 hours and then lower it to 60° C. for at least 2 hours before the end of the curing cycle. After the mold was opened, the polymer sheet was cut using a diamond blade saw into 2 inch (5.1 centimeters) test squares.
The photochromic test squares prepared in Part A were tested for photochromic response rates on an optical bench. […] The bench was fitted with a 150 watt Xenon arc lamp, a remote controlled shutter, a copper sulfate bath acting as a heat sink for the arc lamp, a Schott WG-320 nm cut-off filter which removes short wavelength radiation; neutral density filter(s) and a sample holder in which the square to be tested was inserted. A collimated beam of light from a tungsten lamp was passed through the square at a small angle normal to the square. After passing through the square, the light from the tungsten lamp was directed through a photopic filter attached to a detector. The photopic filter passes wavelengths such that the detector mimics the response of the human eye. The output signals from the detector(s) were processed by a radiometer.
Change in optical density (ΔOD) was determined by inserting a test square in the bleached state into the sample holder, adjusting the transmittance scale to 100%, opening the shutter from the Xenon lamp to provide ultraviolet radiation to change the test square from the bleached state to an activated (i.e., darkened) state, measuring the transmittance in the activated state; and calculating the change in optical density according to the formula Δ OD=log(100/%Ta) where %Ta is the percent transmittance in the activated state and the logarithm is to the base 10.
(§1) The Δ OD/Min, which represents the sensitivity of the photochromic compound's response to UV light, was measured over the first five (5) seconds of UV exposure, then expressed on a per minute basis. The saturation optical density (OD) was taken under identical conditions as the Δ OD/Min, except UV exposure was continued for 20 minutes for the examples in Table 1. The lambda max reported in Table 1 is the wavelength in the visible spectrum at which the maximum absorption of the activated (colored) form of the photochromic compound in a diethylene glycol bis(allyl carbonate) composition occurs.

Data set [2] is described as follows: lambda max of the activated (colored) form in the visible spectrum. The data set is classed as physicochemical. Particulars: activated form in a diethylene glycol bis(allyl carbonate) composition. The procedure: as §1, with “occurs. The Bleach Rate (T 1/2) is the time interval in seconds for the absorbance of the activated form of the naphthopyran in the test squares to reach one half the highest absorbance at room temperature (75° F., 23.9° C.) after removal of the source of activating light.” for “occurs.”

Consider `COc1ccc(C2(c3ccc(OC)cc3)C=Cc3c(-c4cccn4C)c(OC(C)=O)c4ccccc4c3O2)cc1` [Example 1, 2,2-bis(4-methoxyphenyl)-5-(N-methylpyrrol-2-yl)-6-acetoxy-2H-naphtho[1,2-b]pyran], for which, in data set [1], the “ΔOD @ SATURATION” value worked out at 0.25, the “ΔOD/MIN SENSITIVITY” value was 0.16 ΔOD/MIN and the “Bleach Rate (T1/2)” value was determined as 1.23 min. The “LAMBDA MAX (VISIBLE)” value in data set [2] amounted to 513 nm.
On to `COc1ccc(C2(c3ccc(OC)cc3)C=Cc3c(-c4ccc(OC)cc4OC)c(OC(C)=O)c4ccccc4c3O2)cc1` [Example 2, 2,2-bis(4-methoxyphenyl)-5-(2,4-dimethoxyphenyl)-6-acetoxy-2H-naphtho[1,2-b]pyran], for which, in data set [1], the “ΔOD @ SATURATION” value was determined as 0.55, the “ΔOD/MIN SENSITIVITY” value is 0.15 ΔOD/MIN and the “Bleach Rate (T1/2)” value was found to be 4.13 min. Moreover, the “LAMBDA MAX (VISIBLE)” value in data set [2] was 511 nm.
The matching figures for `COc1ccc(C2(c3ccc(OC)cc3)C=Cc3c(Sc4ccccc4)c(O)c4ccccc4c3O2)cc1` [Example 3, 2,2-bis(4-methoxyphenyl)-5-phenylthio-6-hydroxy-2H-naphtho[1,2-b]pyran]: 1.76, 0.34 ΔOD/MIN, greater than 10 min and 516 nm.
For the molecule `COc1ccc(C2(c3ccc(OC)cc3)C=Cc3c(Sc4ccccc4)c(OC(C)=O)c4ccccc4c3O2)cc1` [Example 4, 2,2-bis(4-methoxyphenyl)-5-phenylthio-6-acetoxy-2H-naphtho[1,2-b]pyran], in data set [1], the “ΔOD @ SATURATION” value is given as 0.23, the “ΔOD/MIN SENSITIVITY” value is given as 0.22 ΔOD/MIN and the “Bleach Rate (T1/2)” value is 0.7 min. Also, the “LAMBDA MAX (VISIBLE)” value in data set [2] turned out to be 516 nm.
The matching figures for `COc1ccc(C2(c3ccc(OC)cc3)C=Cc3c(Cl)c(OC(C)=O)c4ccccc4c3O2)cc1` [Example 5, 2,2-bis(4-methoxyphenyl)-5-chloro-6-acetoxy-2H-naphtho[1,2-b]pyran]: 0.07, 0.08 ΔOD/MIN, 0.9 min and 462 nm.
On to `COc1ccc(C2(c3ccc(OC)cc3)C=Cc3c(C)c(OC(C)=O)c4ccccc4c3O2)cc1` [Example 6, 2,2-bis(4-methoxyphenyl)-5-methyl-6-acetoxy-2H-naphtho[1,2-b]pyran], for which, in data set [1], the “ΔOD @ SATURATION” value turned out to be 0.37, the “ΔOD/MIN SENSITIVITY” value is reported as 0.14 ΔOD/MIN and the “Bleach Rate (T1/2)” value came out at 2 min. In addition, in data set [2], the “LAMBDA MAX (VISIBLE)” value is 506 nm.
For the molecule `Oc1c(Sc2ccccc2)c2c(c3ccccc13)OC1(C=C2)C2CC3CC(C2)CC1C3` (centres unmarked) [Example 7, 2,2'-spiroadamantylene-5-phenylthio-6-hydroxy-2H-naphtho[1,2-b]pyran], in data set [1], the “ΔOD @ SATURATION” value turned out to be 0.47, the “ΔOD/MIN SENSITIVITY” value was 0.15 ΔOD/MIN and the “Bleach Rate (T1/2)” value amounted to 3.08 min. Further, the “LAMBDA MAX (VISIBLE)” value in data set [2] came out at 462 nm.
The matching figures for `CC(=O)Oc1c(Sc2ccccc2)c2c(c3ccccc13)OC1(C=C2)C2CC3CC(C2)CC1C3` (centres unmarked) [Example 8, 2,2'-spiroadamantylene-5-phenylthio-6-acetoxy-2H-naphtho[1,2-b]pyran]: 0.04, 0.10 ΔOD/MIN, 1.13 min and 459 nm.
On the same counts, the results for `COc1c(C)c2c(c3ccccc13)OC1(C=C2)C2CC3CC(C2)CC1C3` (centres unmarked) [Example 9, 2,2'-spiroadamantylene-5-methyl-6-methoxy-2H-naphtho[1,2-b]pyran] are 0.17, 0.12 ΔOD/MIN, 2.55 min and 462 nm.
`COc1ccc(C2(c3ccc(OC)cc3)C=Cc3c(C(O)(c4ccccc4)c4ccccc4)c(O)c4ccccc4c3O2)cc1` [Example 10, 2,2-bis (4-methoxyphenyl)-5-diphenylmethylol-6-hydroxy-2H-naphtho[1,2-b]pyran]: in data set [1], the “ΔOD @ SATURATION” value is 0.32, the “ΔOD/MIN SENSITIVITY” value is 0.05 ΔOD/MIN and the “Bleach Rate (T1/2)” value was greater than 13.3 min. The “LAMBDA MAX (VISIBLE)” value in data set [2] worked out at 482 nm.
As to `COc1ccc(C2(c3ccc(OC)cc3)C=Cc3c(C(O)(c4ccccc4)c4ccccc4)c(OC)c4ccccc4c3O2)cc1` [Example 11, 2,2-bis(4-methoxyphenyl)-5-diphenylmethylol-6-methoxy-[2H]-naphtho[1,2-b]pyran], in data set [1], the “ΔOD @ SATURATION” value turned out to be 0.19, the “ΔOD/MIN SENSITIVITY” value is 0.10 ΔOD/MIN and the “Bleach Rate (T1/2)” value was 1.42 min. Moreover, in data set [2], the “LAMBDA MAX (VISIBLE)” value amounted to 467 nm.

These data come from patent publication US5658501A, “Substituted naphthopyrans” (Transitions Optical, Inc., priority 1995, dated 1997).
